Measured values taken from patent publication US10583171B2, “NMDAR antagonists for the treatment of diseases associated with angiogenesis” (INSERM (Institut National de la Sante et de la Recherche …, priority 2015, dated 2020).

Assays:
Assay type in all cases: cell-based, human
hPMVEC [1] = test: In vitro angiogenesis Matrigel assay with hPMVEC; details: 4 hours, 100 μM (+)-MK-801 maleate or 50 μM DAP-V (FIG. 1g, FIG. 2f)
Protocol: Matrigel assays were performed on μ-slide angiogenesis (IBIDI, Martinsried, Germany). 100 μL of phenol-red free matrigel matrix (BD, Franklin lakes, N.J., USA) were put in each wells and slides were incubated during 30 min at 37° C. Then, 50 μL of EGM2-MV medium with our without NMDAR antagonists (100 μM (+)-MK-801 maleate or 50 μM DAP-V, both from ABCAM BIOCHEMICALS, Cambridge, UK) were added on matrigel gels during 1 hour. 3500 hPMVEC were seeded in each well in presence or absence of NMDAR antagonists. After 4 hours, bright-field images of capillary-like structures were captured using Eclipse 80i microscope coupled to Nis Elements BR2.30 software. Images were then automatically analyzed with “Angiogenesis analyzer” plugin for ImageJ software resulting in total tube length and total number of nodes determination.

hPMVEC [2] = test: hPASMC/hPMVEC co-culture model of angiogenesis; details: hPMVECs and hPASMCs co-culture, 15 days, CD31 staining; 10 to 100 μM (FIG. 1h, FIG. 2g)
Protocol: For the hPASMC/hPMVEC co-culture model of angiogenesis, 20000 PASMC were seeded on glass coverslips in a 12-well plate (CORNING, Tewksbury, Mass., USA) and cultured until confluence in SmGm2 complete medium. […] Medium was changed every 2 to 3 days and after 15 days of co-culture, cells were fixed and CD31 was stained. After staining, 5×5 images of each coverslip were captured using mosaic mode of acquisition with a Zeiss Axio Observer Z1 microscope coupled to Axiovision 4.8 software (both from CARL ZEISS, Oberkochen, Germany). Images were analysed using ImageJ software in order to calculate the CD31 staining area to the total cell area ratio. This ratio was further named as the total tube length. Automatic quantitation was also achieved using AngioQuant software^70 to determine total tube length.

hPMVEC [3] = test: hPMVEC proliferation (BrdU incorporation) stimulated by VEGF-A or FBS; details: for hPMVEC proliferation stimulated by FBS 10%: antagonist 10 μM to 100 μM, no exogenous NMDAR agonists (FIG. 2e); for hPMVEC proliferation stimulated by VEGF-A: VEGF-A 10 ng·ml^−1, antagonist 10 μM to 100 μM, no exogenous NMDAR agonists (FIG. 1f)
Protocol: FIG. 1: Activation of endothelial cell NMDAR contributes to vascular remodeling in the development of pulmonary hypertension. • (a) The table summarizes quantitation of total membrane GluN1 i.e NMDAR available for activation, in endothelial cells and also specifically in synaptic-like contact (defined as a close contact […] between two endothelial cells without junctions). A concentration index of GluN1 in the synaptic-like contacts was determined calculating the ratio of the percent of membrane GluN1 in these synaptic-like contacts divided by the percent of synaptic contact length. • (b) Quantitative RT-PCR analysis of GRIN1 gene expression from total RNA of CD31+ cells and CD31− cells isolated from the lungs of wild-type mice (n=4) and knocked-out mice (n=4) for the NMDAR in ECs showing efficiency of Grin1 knockout in ECs. Grin1 gene expression is normalized to Actinb gene expression. Values are normalized to those of WT mice. • (c) Right Ventricular Systolic Pressure (RVSP) measurement in wild-type (n=11-12) and knocked-out mice for the NMDAR in ECs (n=17-18) after 3 weeks of normoxia or chronic hypoxia (FiO2: 10%). • (d) Ratio of right ventricular weight to left ventricular plus septum weight (Fulton index) measured in wild-type (n=12) or knocked-out mice for the NMDAR in ECs (n=19-20) after 3 weeks of normoxia or chronic hypoxia (FiO2: 10%). Same experiment as in c). • (e) Morphometric analysis of pulmonary vessels in wild-type or knocked-out mice for the NMDAR in ECs after 3 weeks of normoxia or chronic hypoxia (FiO2: 10%). Same experiment as in c) and d). […] 100 vessels were analyzed for each group (20 vessels per group and per mice). […] On the left automatic quantification of total tube length and total number of nodes using the “Angiogenesis analyzer” plugin from ImageJ software on a total of 7-8 images (1 image/replicate, each image covering nearly all the well area). Values are expressed as percent of control. […] Statistical significance was determined by Mann Whitney test (b), regular two-way ANOVA followed by Bonferonni's test (c-e), one-way ANOVA followed by Bonferonni's multiple comparison test (f, h) or Student's t test (g). *p<0.05, ***p<0.001 compared to WT/control (b-e, g, h) or ^§§§ p<0.001 compared to control, *p<0.05, ***p<0.001 compared to VEGF (f). […]
FIG. 2: Supplementary figures about activation of endothelial cell NMDAR contributes to vascular remodeling in the development of pulmonary hypertension. • (a) Quantitation of total GluN1-associated immunogold particles per 100 μm^2 of endothelial cells in arteries from a control patient, and in an intimal lesion and plexiform lesion from a PAH patient. • (b) Genotyping of Tek-creXGrin1 mice. […]

hPASMCs = test: hPASMC proliferation induced by PDGF-BB; details: PDGF-BB stimulation, no NMDAR agonist added to the medium
Protocol: For hPASMC culture, 250 000 cells were seeded in T75 flasks (BD Falcon, CORNING, Tewksbury, Mass., USA) and grown in the SmGm2 complete medium containing SmBm basal medium and also basic fibroblast growth factor, epidermal growth factor, insulin and gentamycin/amphotericin 1× (all from LONZA, Basel, Switzerland).
As proliferation of hPASMCs is a crucial determinant of vascular remodeling associated to increased pulmonary vascular resistance and pressure, we analyzed the role of NMDAR activation in hPASMCs proliferation. […] Thus, we explored the potential of PDGF-BB to phosphorylate GluN1 in hPASMCs on Ser896, a site phosphorylated in pulmonary arteries of PAH patients.

SMILES | number of nodes (hPMVEC [1]) | total tube length formation (hPMVEC [1]) | formation of the endothelial tube network (hPMVEC [2]) | hPMVEC proliferation stimulated by FBS 10% (hPMVEC [3]) | hPMVEC proliferation stimulated by VEGF-A (hPMVEC [3]) | hPASMCs proliferation induced by PDGF-BB (hPASMCs)
N[C@H](CCCP(=O)(O)O)C(=O)O [DAP-5, 2-amino-5-phosphonopentanoïc acid] | decrease | decrease |  |  |  | 
C[C@@]12N[C@@H](Cc3ccccc31)c1ccccc12 [MK-801, [5R,10S]-[+]-5-methyl-10,11-dihydro-5H-dibenzo[a,d]cyclohepten-5,10-imine] | decrease | decrease | dose-dependently inhibits | dose-dependently inhibit | dose-dependently inhibit | 
CC12CC3CC(C)(C1)CC(N)(C3)C2 [memantine, 3,5-dimethyladamantan-1-amine] |  |  |  | dose-dependently inhibit | dose-dependently inhibit | dose-dependent inhibition
